Source: ChEMBL document CHEMBL5653631, “A Potent and Selective ULK1 Inhibitor Suppresses Autophagy and Sensitizes Cancer Cells to Nutrient Stress” (iScience, 2018)
One block for each compound: values may come before it.

Experiments:
[1] = target: T1, Serine/threonine-protein kinase ICK (Homo sapiens) (UniProt Q9UPZ9); test: Inhibition of human recombinant ICK at 500 nM related to control ULK1
T1 sequence (whole entry): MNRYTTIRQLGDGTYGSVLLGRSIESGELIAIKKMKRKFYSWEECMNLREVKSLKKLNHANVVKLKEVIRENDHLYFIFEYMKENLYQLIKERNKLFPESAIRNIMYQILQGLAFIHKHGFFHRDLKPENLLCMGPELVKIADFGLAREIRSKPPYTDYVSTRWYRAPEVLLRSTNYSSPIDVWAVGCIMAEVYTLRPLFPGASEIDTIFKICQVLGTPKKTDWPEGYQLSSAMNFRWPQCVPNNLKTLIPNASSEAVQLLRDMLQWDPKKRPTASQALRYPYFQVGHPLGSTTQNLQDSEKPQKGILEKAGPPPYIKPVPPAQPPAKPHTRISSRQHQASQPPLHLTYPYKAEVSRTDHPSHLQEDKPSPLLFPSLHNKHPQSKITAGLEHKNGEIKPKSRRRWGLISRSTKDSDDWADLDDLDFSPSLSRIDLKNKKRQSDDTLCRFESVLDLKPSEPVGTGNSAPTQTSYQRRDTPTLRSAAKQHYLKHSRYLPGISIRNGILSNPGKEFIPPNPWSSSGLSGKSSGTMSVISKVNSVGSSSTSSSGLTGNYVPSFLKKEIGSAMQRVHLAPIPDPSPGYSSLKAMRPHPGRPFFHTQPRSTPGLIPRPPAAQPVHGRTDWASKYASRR

[2] = target: T2, Muscle, skeletal receptor tyrosine-protein kinase (Homo sapiens) (UniProt O15146); test: Inhibition of human recombinant MUSK at 500 nM related to control ULK1
T2 sequence (whole entry): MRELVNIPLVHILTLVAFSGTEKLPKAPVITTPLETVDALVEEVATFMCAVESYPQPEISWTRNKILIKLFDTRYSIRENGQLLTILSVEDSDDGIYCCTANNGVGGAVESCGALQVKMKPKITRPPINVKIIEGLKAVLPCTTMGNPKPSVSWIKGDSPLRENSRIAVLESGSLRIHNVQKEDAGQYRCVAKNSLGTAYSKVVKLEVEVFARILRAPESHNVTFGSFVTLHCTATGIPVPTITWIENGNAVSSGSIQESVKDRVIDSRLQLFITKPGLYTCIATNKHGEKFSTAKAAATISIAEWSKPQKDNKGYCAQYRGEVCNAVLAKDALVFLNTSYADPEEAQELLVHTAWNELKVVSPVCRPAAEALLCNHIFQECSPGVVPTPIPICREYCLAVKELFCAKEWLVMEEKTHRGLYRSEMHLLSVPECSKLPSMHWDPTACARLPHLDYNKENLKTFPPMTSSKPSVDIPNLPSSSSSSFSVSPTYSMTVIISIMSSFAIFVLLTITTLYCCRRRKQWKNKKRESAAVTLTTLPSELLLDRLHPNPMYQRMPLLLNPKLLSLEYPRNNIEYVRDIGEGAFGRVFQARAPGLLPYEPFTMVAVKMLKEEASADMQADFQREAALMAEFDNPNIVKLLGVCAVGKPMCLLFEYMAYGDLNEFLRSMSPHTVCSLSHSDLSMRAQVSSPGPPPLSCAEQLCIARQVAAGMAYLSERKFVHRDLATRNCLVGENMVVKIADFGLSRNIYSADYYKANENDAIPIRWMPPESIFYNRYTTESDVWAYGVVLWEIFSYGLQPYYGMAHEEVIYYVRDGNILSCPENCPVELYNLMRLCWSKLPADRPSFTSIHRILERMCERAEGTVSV

[3] = target: DNA-PK/Ku70/Ku85 (Homo sapiens) (UniProt P78527+P12956+P13010); test: Inhibition of human recombinant DNAPK at 40 nM in presence of ATP by radiometric assay relative to control; assay type: protein-complex assay
[4] = target: T3, Eukaryotic translation initiation factor 2-alpha kinase 3 (Homo sapiens) (UniProt Q9NZJ5); test: Inhibition of human recombinant PEK at 15 nM related to control ULK1
T3 sequence (whole entry): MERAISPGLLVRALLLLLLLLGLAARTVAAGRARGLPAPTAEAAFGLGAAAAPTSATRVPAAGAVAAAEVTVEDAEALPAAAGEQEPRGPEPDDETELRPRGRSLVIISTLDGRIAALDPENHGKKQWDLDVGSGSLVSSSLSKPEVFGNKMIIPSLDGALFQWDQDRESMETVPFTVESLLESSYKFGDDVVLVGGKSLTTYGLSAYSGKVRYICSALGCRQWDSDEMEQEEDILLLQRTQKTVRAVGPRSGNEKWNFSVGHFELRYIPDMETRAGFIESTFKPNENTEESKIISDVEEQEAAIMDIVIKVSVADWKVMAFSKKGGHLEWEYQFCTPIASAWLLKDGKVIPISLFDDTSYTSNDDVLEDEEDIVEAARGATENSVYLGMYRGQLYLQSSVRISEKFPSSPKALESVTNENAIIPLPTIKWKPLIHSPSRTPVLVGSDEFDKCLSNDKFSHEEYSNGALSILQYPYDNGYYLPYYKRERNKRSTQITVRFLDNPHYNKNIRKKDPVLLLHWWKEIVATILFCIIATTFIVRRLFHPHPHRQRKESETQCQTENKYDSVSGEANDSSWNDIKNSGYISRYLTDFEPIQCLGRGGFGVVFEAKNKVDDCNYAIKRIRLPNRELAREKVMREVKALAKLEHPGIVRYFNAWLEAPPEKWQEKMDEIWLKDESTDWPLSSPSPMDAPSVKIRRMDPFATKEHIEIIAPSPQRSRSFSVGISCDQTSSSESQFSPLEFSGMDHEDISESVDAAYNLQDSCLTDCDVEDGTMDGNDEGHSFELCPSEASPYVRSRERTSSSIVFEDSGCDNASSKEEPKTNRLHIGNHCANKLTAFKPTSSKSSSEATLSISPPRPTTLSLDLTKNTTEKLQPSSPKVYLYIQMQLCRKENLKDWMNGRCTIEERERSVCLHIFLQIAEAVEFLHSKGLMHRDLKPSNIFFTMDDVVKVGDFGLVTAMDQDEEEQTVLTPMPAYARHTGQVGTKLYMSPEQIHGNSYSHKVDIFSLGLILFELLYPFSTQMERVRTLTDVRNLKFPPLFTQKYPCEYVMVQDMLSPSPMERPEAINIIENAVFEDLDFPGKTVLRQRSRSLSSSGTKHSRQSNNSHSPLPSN

[5] = target: Rhodopsin kinase GRK7 (Homo sapiens) (UniProt Q8WTQ7); test: Inhibition of human recombinant GPRK7 at 15 nM related to control ULK1
Sequence of Rhodopsin kinase GRK7 (Homo sapiens) (Q8WTQ7 whole entry, looked up): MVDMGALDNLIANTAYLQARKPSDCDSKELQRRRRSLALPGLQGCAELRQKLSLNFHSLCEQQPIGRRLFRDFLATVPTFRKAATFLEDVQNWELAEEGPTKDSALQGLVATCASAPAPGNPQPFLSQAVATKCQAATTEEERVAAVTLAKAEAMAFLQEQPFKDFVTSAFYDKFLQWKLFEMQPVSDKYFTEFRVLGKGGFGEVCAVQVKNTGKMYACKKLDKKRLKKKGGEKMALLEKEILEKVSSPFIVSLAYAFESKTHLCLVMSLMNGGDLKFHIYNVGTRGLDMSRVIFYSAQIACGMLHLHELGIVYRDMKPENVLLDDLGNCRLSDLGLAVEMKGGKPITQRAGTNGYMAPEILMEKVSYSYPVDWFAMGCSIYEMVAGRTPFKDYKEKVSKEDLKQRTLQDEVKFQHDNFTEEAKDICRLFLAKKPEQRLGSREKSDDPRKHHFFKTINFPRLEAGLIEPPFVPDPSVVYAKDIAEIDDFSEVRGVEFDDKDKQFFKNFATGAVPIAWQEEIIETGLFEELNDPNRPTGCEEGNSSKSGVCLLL

fold change (FC) [1]: 0.04
fold change (FC) [2]: 0.46
SMILES: CNC(=O)c1ccccc1Oc1nc(Nc2cc(OC)c(OC)c(OC)c2)ncc1Br

inhibition [3]: 9%
SMILES: O=C(N[C@@H](C1CC1)C(F)(F)F)c1cc(-c2cnn3cc(-c4ccc(F)cc4)cnc23)cs1

fold change (FC) [4]: 0
fold change (FC) [5]: 0
SMILES: CC(C)[C@H](NC(=O)c1cc(-c2cnn3cc(-c4ccc(OCCN5CCCCC5)cc4)cnc23)cs1)C(F)(F)F
